In data set [1] the test system is microorganism causing Treponema dysentery. Nature of the data set: experiments against the microorganism causing Treponema dysentery.
In a further data set the test system is Treponema. Nature of the data set: treatment of pigs from a farm with pigs scour, Treponema-positive (Example VII). Format: in vivo. How it is done:
Pigs, from a farm where problems with pigs scour had existed for some time, were treated under the supervision of the local veterinary surgeon and the inspector of the Health Service Station. The pigs were divided into groups and treated for 4 days in the following manner.
Group 1: 66 pigs were treated with feed containing 100 ppm of tylosin;
Group 2: 34 pigs were treated with feed containing 25 ppm of dihydromocimycin;
Group 3: 40 pigs were treated with feed containing 50 ppm of dihydromocimycin; and
Group 4: 40 pigs were treated with feed containing 100 ppm of dihydromocimycin.
Before the treatment, all animals lost thin or very thin faeces. Samples thereof were investigated and found to be Treponema-positive, and Salmonella-negative. Sometimes worm eggs were found.

Data set [2] is described as follows: growth promotion in slaughter chickens (Example II). Format: in vivo. Conditions: feed additive. An excerpt:
Slaughter chickens are given mocimycin in the form of the sodium salt obtained in Example 1, in a mixture with component of the feed (wheat flour), the amount of antibiotic in the feed (based on the weight of the feed) being as specified in the following Table, which gives the weight of the chickens after 3, 5 and 7 weeks.

In another data set the test system is chickens. The experiment in a line: three-month oral toxicity in chickens. Conditions: up to 0.1% in the diet, three months. It counts as in vivo. An excerpt:
(§1) The toxicity of the antibiotic has been studied in various animals.

For data set [3], the system named is organisms of the Mycoplasma genus (pleuro-pneumonia like organisms). The experiment in a line: in vitro activity against Mycoplasma genus. Format: cell-based.
For data set [4], the system named is Clostridium welchii A 738. The experiment in a line: microbe, parasite or virus in culture. Format: cell-based. Conditions: A738, 18 h, read-out: Minimum inhibitory concentration.
The test system of another data set is Treponema hyodysenteriae. Nature of the data set: early experiments against Treponema dysentery. Format: in vivo. Conditions: swine. How it is done: In an early stage of investigation, it was presumed that mocimycin, having a similar anti-microbial spectrum to that of tylosin (Merck Index, 8th Ed. page 1089), might be effective against Treponema hyodysenteriae causing Treponema dysentery of Vibrio Doyle, one of the most common swine diseases. […] For that reason, no further investigations were carried out.

Data set [5] is described as follows: growth promotion in pigs (Example III). Conditions: pigs, summary of Table VII. Format: in vivo. How it is done: The sodium salt of mocimycin as obtained in Example I, was pre-mixed with wheat flour which mixture, added to the feed, was administered to pigs. The amount of the antibiotic present in the feed (based on the weight of the feed) is given hereinbelow in Table VII, in which the average relative weights of the pigs after 6 and 12 weeks, respectively are given.

Data set [6] deals with Streptococcus haemolyticus A 266. The experiment in a line: micro liquid serial dilution test (Table II). Format: cell-based. Conditions: A266, 18 hours at 30° C or 37° C, read-out: Minimum inhibitory concentration. How it is done:
(§2) The microbiological activity of the antibiotic preparation towards a number of micoorganisms has been determined by a micro liquid serial dilution test:
(§3) A stock solution of the test compounds at a concentration of 200 μg/ml in 0.05 molar phosphate buffer at a pH of 6.5 was prepared and serial 1:1 dilutions were made with a liquid medium inoculated with the test organism, using conventional glass spot-test plates. The plates were incubated 18 hours at 30° C or 37° C. The minimum inhibitory concentration (MIC) which is the smallest concentration of compound completely inhibiting the growth of the test organism is read and calculated in μg/ml.

The next data set concerns Aspergilus niger D 184. Nature of the data set: micro liquid serial dilution test (Table II). The conditions noted are these: 18 hours at 30° C or 37° C; read-out: Minimum inhibitory concentration. It counts as cell-based. How it is done: as §2, §3
The subject of data set [7] is Streptococcus faecalis A 306. The experiment in a line: micro liquid serial dilution test (Table II). It counts as cell-based. Conditions: Enterococcus faecalis, A306; 18 hours at 30° C or 37° C; read-out: Minimum inhibitory concentration. How it is done:
as §2, §3

The test system of data set [8] is Torulopsis glabrata A 420. Nature of the data set: micro liquid serial dilution test (Table II). It counts as cell-based. Conditions: Nakaseomyces glabratus, A420; 18 hours at 30° C or 37° C; read-out: Minimum inhibitory concentration. How it is done:
as §2, §3

The subject of another data set is Escherichia coli M. Nature of the data set: micro liquid serial dilution test (Table II). Format: cell-based. The conditions noted are these: 18 hours at 30° C or 37° C, read-out: Minimum inhibitory concentration. How it is done:
as §2, §3

For data set [9], the system named is Lactobacillus acidophilus D 218. Nature of the data set: micro liquid serial dilution test (Table II). Format: cell-based. The conditions noted are these: D218, 18 hours at 30° C or 37° C, read-out: Minimum inhibitory concentration. How it is done:
as §2, §3

Data set [10] deals with Pseudomonas aeruginosa L 94. The experiment in a line: micro liquid serial dilution test (Table II). It counts as cell-based. Conditions: L94, 18 hours at 30° C or 37° C, read-out: Minimum inhibitory concentration. How it is done: as §2, §3
The subject of the next data set is Escherichia coli U 20. The experiment in a line: micro liquid serial dilution test (Table II). It counts as cell-based. The conditions noted are these: U20, 18 hours at 30° C or 37° C, read-out: Minimum inhibitory concentration. How it is done:
as §2, §3

Another data set deals with Salmonella dublin P 43. The experiment in a line: micro liquid serial dilution test (Table II). Format: cell-based. Conditions: Salmonella enterica, P43; 18 hours at 30° C or 37° C; read-out: Minimum inhibitory concentration. How it is done: as §2, §3
The test system of another data set is Candida albicans A 7. The experiment in a line: micro liquid serial dilution test (Table II). It counts as cell-based. Conditions: A7, 18 hours at 30° C or 37° C, read-out: Minimum inhibitory concentration. How it is done:
as §2, §3

The subject of data set [11] is Pasteurella multocida A 723. Nature of the data set: micro liquid serial dilution test (Table II). Format: cell-based. The conditions noted are these: A723, 18 hours at 30° C or 37° C, read-out: Minimum inhibitory concentration. How it is done: as §2, §3
Data set [12] relates to human-pathogenic microorganisms. Nature of the data set: in vitro activity against human-pathogenic microorganisms. Format: cell-based. Conditions: summary of Table II. How it is done:
as §2, §3

For a further data set, the system named is Actinobacillus equuli. Nature of the data set: activity against Actinobacillus equuli (in words). Format: cell-based.
Another data set concerns mice. Nature of the data set: Acute toxicity in mice. It counts as in vivo.
From the text: as §1

In data set [13] the test system is Staphylococcus aureus A 355. Nature of the data set: micro liquid serial dilution test (Table II). Format: cell-based. Conditions: A355, 18 hours at 30° C or 37° C, penicillinase-producer, read-out: Minimum inhibitory concentration. How it is done: as §2, §3
(§4) wherein ') indicates penicillinase-producer; ") indicates recently isolated hospital strain.

The next data set has as its system Proteus morganii 2241. The experiment in a line: micro liquid serial dilution test (Table II). The conditions noted are these: Morganella morganii, 18 hours at 30° C or 37° C, recently isolated hospital strain, read-out: Minimum inhibitory concentration. Format: cell-based. How it is done:
as §2, §3, §4

The subject of data set [14] is Pseudomonas aeruginosa 2396. Nature of the data set: micro liquid serial dilution test (Table II). Format: cell-based. The conditions noted are these: 18 hours at 30° C or 37° C, recently isolated hospital strain, read-out: Minimum inhibitory concentration. How it is done: as §2, §3, §4

Converted amounts (≈) assume the structure as drawn. Where only a bound is given, the exact number is not on record here.

For the compound `CC=CC=CC1OC(O)(C(CC)C(=O)NCC=CC=C(C)C(OC)C(C)C2OC(C=CC=CC=C(C)C(=O)C3=C(O)CCNC3=O)C(O)C2O)C(O)C(O)C1(C)C` (centres unmarked) [dihydromocimycin], in data set [1], the “treatment of Treponema dysentery compared with tylosin and mocimycin” value is “superior to tylosin (and also to mocimycin)”. The “activity against tylosin-resistant strains” value in data set [1] (tylosin-resistant strains) is given as “active against tylosin-resistant strains”. For the same compound, in the data set on Treponema (25-100 ppm in feed), the “liveliness of treated animals” value is “much more lively than before the treatment”. Moreover, the “curing of Treponema dysentery, compared with tylosin” value in the data set on Treponema (25 ppm dihydromocimycin vs 100 ppm tylosin) is on record as “better than a dosage of 100 ppm of tylosin”. Moreover, the time to cure entry in the data set on Treponema (dihydromocimycin 25 ppm in feed (group 2)) is “cured in periods lying between those of groups 1 and 4”; in the data set with Treponema (dihydromocimycin 50 ppm in feed (group 3)), “cured in periods lying between those of groups 1 and 4”. In the data set on Treponema (dihydromocimycin 100 ppm in feed, one day after the start of treatment), the faeces result is on record as “normal”. For the same compound, the aversion to feed entry in the data set on Treponema (feed containing dihydromocimycin) is reported as “not averse to feed containing dihydromocimycin”.

With `CC=CC=CC1OC(O)(C(CC)C(=O)NCC=CC=C(C)C(OC)C(C)C2OC(C=CC=CC=C(C)C(=O)c3c(O)cc[nH]c3=O)C(O)C2O)C(O)C(O)C1(C)C` (centres unmarked) [mocimycin], the “growth of the chickens” value in data set [2] was “an increase in growth”. In the data set on chickens, the undesired pharmacological effect result was “does not result in any undesired pharmacological effect”. Moreover, the activity in vitro entry in data set [3] was “considerable activity in vitro”. Further, the MIC in [4] is 10 µg/mL (≈ 12.5 µM); in data set [6], 2 µg/mL (≈ 2.51 µM); with Aspergilus niger D 184 it was greater than 100 µg/mL; in [7] it was 1 µg/mL (≈ 1.25 µM); in data set [8], greater than 100 µg/mL; with Escherichia coli M, greater than 100 µg/mL. The MIC in [9] is greater than 100 µg/mL; in [10], greater than 100 µg/mL; in the data set on Escherichia coli U 20, greater than 100 µg/mL; in the data set on Salmonella dublin P 43 it was greater than 100 µg/mL; in the data set with Candida albicans A 7, greater than 100 µg/mL; in data set [11], 4 µg/mL (≈ 5.02 µM). The MIC was 100 µg/mL (≈ 125 µM) in data set [13], 100 µg/mL (≈ 125 µM) in the data set on Proteus morganii 2241 and greater than 100 µg/mL in data set [14]. Also, the “activity against Treponema dysentery compared with tylosin” value in the data set with Treponema hyodysenteriae is recorded as “active against this disease, but not more so than tylosin”. For the same compound, the growth promoting effect entry in data set [5] is “growth promoting effect”. The “activity against a number of human-pathogenic microorganisms” value in data set [12] is “almost no activity”. Moreover, in the data set with Actinobacillus equuli, the result was active. Also, the lethality result with mice (1,000 mg/kg i.p., mice) is listed as “does not kill mice”. Besides, in the data set with mice (various animals), the acute toxicity result is “very low”.

For the origin of these results see patent US4062948A, “Dihydromocimycin antibiotics” (Gist-Brocades N.V., priority 1970, dated 1977).
